This is an account of results in publication PMC6214909, “An asparagine/glycine switch governs product specificity of human N-terminal methyltransferase NTMT2” (Communications Biology, 2018).

Entries after “also recorded” stand apart in the source; their conditions may differ. Like-named read-outs stand apart in the source and are kept apart here. Square brackets hold non-standard residues; d marks the D form. Ends that are not written are not given here. Peptide text beside a SMILES is read from it. NMeS = CN[C@@H](CO)C(=O)O; NMeA = CN[C@@H](C)C(=O)O

Test [1] concerns the target T1, NTMT2 (Homo sapiens, UniProt Q5VVY1).
T1 construct: DNA encoding human NTMT2 (residues 58–278) was amplified by PCR; SUMO (His8-SUMO of the pET28-MKH8SUMO vector, with TEV site) (N, cleaved yes); made in house; host or cells: Escherichia coli BL21 (DE3)
Put plainly: Isothermal titration calorimetry, wild-type NTMT2 and peptide. It counts as binding. The protocol:
ITC measurements were performed in 20 mM Tris–HCl pH 7.5, 150 mM NaCl and 0.5 mM TCEP at 25 °C using MicroCal VP-ITC instrument. The final concentrations of protein and peptide were 50–80 μM and 0.6–1.2 mM, respectively. The peptide was titrated into the protein solution with 26 injections of 10 μL each. Injections were spaced 180 s with a reference power of 15 μcal s^−1. The ITC data were processed using Origin software.
(In general: Isothermal titration calorimetry measures the heat released or taken up as one component is titrated into another.)

The subject of another test is NTMT1. Put plainly: MALDI-MS methyltransferase activity assay, NTMT1. It counts as biochemical, human. Particulars: 2 μM NTMT1, 10 μM peptide, 200 μM SAM, 25 mM Tris–HCl pH 7.5, 50 mM KCl, 37 °C, overnight. As for the experimental part:
(§1) A mixture (36 μL) of 2 μM enzyme (NTMT1 or NTMT2), 25 mM Tris–HCl pH 7.5, 50 mM KCl and 200 μM SAM was incubated at 37 °C for 5 min. 4 μL of 100 μM peptide substrate (final concentration 10 μM) was then added to initiate the reaction. The reaction was incubated overnight and then stopped with quenching solution (20 mM NH4H2PO4, 0.4% (v/v) TFA in 1:1 acetonitrile/water). Reaction mixtures were analyzed with an Applied Biosystems Voyager matrix-assisted laser desorption/ionization time-of-flight mass spectrometer. Processing of all spectra results in Data Explorer included application of a noise filter (correlation factor of 1.0) and a baseline correction. Areas of the monoisotopic peaks for all relevant species were combined to obtain a total area for each sample. The fraction of each methylation state was calculated by summing the areas of all the monoisotopic peaks for that state ([M + H]^+, [M + Na]^+, [M + K]^+, [M – H + 2Na]^+, [M – H + 2 K]^+, and [M – H + Na + K]^+) and then dividing by the total area.

The test system of a further test is NTMT2-N89G mutant. Nature of the test: MALDI-MS methyltransferase activity assay, NTMT2-N89G mutant. Particulars: NTMT2-N89G under the same conditions (2 μM enzyme, 10 μM peptide, 200 μM SAM, pH 7.5, 37 °C, overnight). It counts as biochemical, human. The protocol: as §1
Test [2] has as its target T1, NTMT2. Nature of the test: MALDI-MS methyltransferase activity assay, NTMT2. It counts as biochemical. To be noted: 2 μM NTMT2, 10 μM peptide, 200 μM SAM, 25 mM Tris–HCl pH 7.5, 50 mM KCl, 37 °C, overnight. As for the experimental part: as §1
A further test addresses RCC1 (Homo sapiens). Particulars: cited from earlier work.
The target of test [3] is T2, NTMT2 (residues 58–278) N89G mutant (human, UniProt Q5VVY1 58-278, N89G).
T2 construct: N-terminal methyltransferase NTMT2 (METTL11B/NRMT2), human, residues 58-278; also called NTMT2-N89G; source: E. coli BL21 (DE3), purified with the same protocol as wild type; not shown: SUMO, N-terminal, cleaved
T2 sequence (Q5VVY1 58-278 N89G): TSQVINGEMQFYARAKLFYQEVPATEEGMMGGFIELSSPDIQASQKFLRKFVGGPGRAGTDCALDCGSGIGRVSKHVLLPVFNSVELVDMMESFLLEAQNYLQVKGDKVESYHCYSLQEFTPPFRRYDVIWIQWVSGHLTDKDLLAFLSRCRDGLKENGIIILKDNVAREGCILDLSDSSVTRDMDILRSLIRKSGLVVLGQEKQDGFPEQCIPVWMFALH
Put plainly: ITC; peptide (0.6–1.2 mM) titrated into protein (50–80 μM); 20 mM Tris–HCl pH 7.5, 150 mM NaCl, 0.5 mM TCEP, 25 °C; MicroCal VP-ITC. Particulars: both partners purified.

Setting [4] is: ITC, wild-type NTMT2, 20 mM Tris–HCl pH 7.5, 150 mM NaCl, 0.5 mM TCEP, 25 °C, ND = no detectable binding.

T1 sequence (Q5VVY1 58-278): as the sequence (Q5VVY1 58-278 N89G) above, with G32N counted along it

Regarding `CC[C@H](C)[C@H](NC(=O)[C@H](CCCNC(=N)N)NC(=O)[C@H](CCCCN)NC(=O)[C@@H]1CCCN1C(=O)[C@H](C)NC)C(=O)N[C@@H](C)C(=O)O` [Ame1PKRIA] (H-[NMeA]PKRIA-OH), the Kd (usually the constant that tells how readily two partners part at equilibrium) on NTMT2 [1] (setting [4]) is “no detectable binding; also recorded: does not bind”.

On to `CC[C@H](C)[C@H](NC(=O)[C@H](CCCNC(=N)N)NC(=O)[C@H](CCCCN)NC(=O)[C@@H]1CCCN1C(=O)[C@H](CO)NC)C(=O)N[C@@H](C)C(=O)O` [Sme1PKRIA] (H-[NMeS]PKRIA-OH), for which the Kd result on NTMT2 [1] (setting [4]) is “barely demonstrated any binding affinity; also recorded: does not bind”.

In the test with NTMT1, “KPKRIA [synthetic XPKRIA hexapeptide substrate, X = K]” had a Di-methylated fraction of 96.14%, a Mono-methylated fraction of 0.00%, a Trimethylated fraction of 3.86% and an Unmethylated fraction of 0.00%. In the test on NTMT2-N89G mutant, this molecule had a Di-methylated fraction of 0.00%, a Mono-methylated fraction of 20.40%, a Trimethylated fraction of 0.00% and an Unmethylated fraction of 79.60%. At NTMT2 [2], this molecule gave a Di-methylated fraction of 0.00%, a Mono-methylated fraction of 5.19%, a Trimethylated fraction of 0.00% and an Unmethylated fraction of 94.81%.

Regarding “IPKRIA [synthetic XPKRIA hexapeptide substrate, X = I]”, in the test with NTMT1, the Di-methylated fraction turned out to be 20.10%, the Mono-methylated fraction is recorded as 43.34%, the Trimethylated fraction worked out at 0.00% and the Unmethylated fraction was 36.56%. Further, in the test with NTMT2-N89G mutant, the Di-methylated fraction amounted to 0.00%, the Mono-methylated fraction was found to be 5.08%, the Trimethylated fraction was 0.00% and the Unmethylated fraction was determined as 94.92%. On NTMT2 [2], this molecule came in with a Di-methylated fraction of 0.00%, a Mono-methylated fraction of 0.00%, a Trimethylated fraction of 0.00% and an Unmethylated fraction of 100.00%.

In the test with NTMT1, “HPKRIA [synthetic XPKRIA hexapeptide substrate, X = H]” yielded a Di-methylated fraction of 100.00%, a Mono-methylated fraction of 0.00%, a Trimethylated fraction of 0.00% and an Unmethylated fraction of 0.00%. Moreover, in the test on NTMT2-N89G mutant, the Di-methylated fraction was 1.61%, the Mono-methylated fraction worked out at 98.39%, the Trimethylated fraction is 0.00% and the Unmethylated fraction worked out at 0.00%. Also, on NTMT2 [2], the Di-methylated fraction came out at 0.00%, the Mono-methylated fraction is listed as 39.05%, the Trimethylated fraction is given as 0.00% and the Unmethylated fraction was 60.95%.

Take NTMT1 (from UniProt Q9BV86): in the test with RCC1 (Homo sapiens), the Kd is 0.8 µM.

For the molecule SPKRIA [SPKRIA], the Kd on NTMT2 [1] (read-out: Kd) stood at 18 µM. On NTMT2 [2], this molecule gave a Di-methylated fraction of 0.00%, a Mono-methylated fraction of 46.39%, a Trimethylated fraction of 0.00% and an Unmethylated fraction of 53.61%.

B1: Sme1PKRIA peptide (methylated SPKRIA) (peptide)
peptide: [NMeS]PKRIA
notes: N-terminal hexapeptide of regulator of chromatin condensation 1 (RCC1), without the initiator methionine, alpha-N-monomethylated; also called mono-methylated SPKRIA
In the case of B1, binding in test [3] was characterised by a dissociation constant (Kd) of 36 µM.

B2: Ame1PKRIA peptide (peptide)
peptide: [NMeA]PKRIA
notes: XPKRIA peptide derived from the RCC1 N-terminal hexapeptide SPKRIA, with alanine at the first position, alpha-N-monomethylated; also called mono-methylated APKRIA
Molecule B2 showed a Kd in test [3] of 32 µM.
